Reference: patent EP4310070A1, “USE OF TRANS AMANTADINE DERIVATIVE OR SALT THEREOF” (Chengdu Shibeikang Biomedical Technology Co., Ltd., priority 2021, dated 2022)
Structures can show the parent of a compound that is named as a salt. Marks after values point to notes of the source that are not given here.

Key:
[1] = tested on: acute lung injury in mice induced by oleic acid; experiment: acute lung injury test in mouse (oleic acid-induced, histological grading of lung pathology); type: in vivo, KM mice; conditions: for protective effect against acute lung injury in mice induced by oleic acid: compared with the model control group (P<0.05 or P<0.01), 40 mg/kg free base i.v.; for Overall lung pathology score: group sum, weighted (alveolar wall thickening x 1, inflammatory cell infiltration x 1, lung tissue necrosis x 3), 40 mg/kg free base i.v. once a day for 4 times, model control 81, normal control 21; for Alveolar wall thickening Level 0 / Inflammatory cell infiltration Level 0 / Lung tissue necrosis Level 0: number of mice (11 per group) at score 0 (No pathological change); for Alveolar wall thickening Level 0 / Inflammatory cell infiltration Level 0 / Lung tissue necrosis Level 0 / Alveolar wall thickening Level 1 / Inflammatory cell infiltration Level 1 / Lung tissue necrosis Level 1 / Alveolar wall thickening Level 2 / Inflammatory cell infiltration Level 2 / Lung tissue necrosis Level 2 / Alveolar wall thickening Level 3 / Inflammatory cell infiltration Level 3 / Lung tissue necrosis Level 3 / Alveolar wall thickening Level 4 / Inflammatory cell infiltration Level 4 / Lung tissue necrosis Level 4: 40 mg/kg in terms of free base, intravenously once a day for 4 times, oleic acid 300 mg/kg i.v.; for Alveolar wall thickening Level 1 / Inflammatory cell infiltration Level 1 / Lung tissue necrosis Level 1: number of mice (11 per group) at score 1 (Occasional); for Alveolar wall thickening Level 2 / Inflammatory cell infiltration Level 2 / Lung tissue necrosis Level 2: number of mice (11 per group) at score 2 (Mild); for Alveolar wall thickening Level 3 / Inflammatory cell infiltration Level 3 / Lung tissue necrosis Level 3: number of mice (11 per group) at score 3 (Moderate); for Alveolar wall thickening Level 4 / Inflammatory cell infiltration Level 4 / Lung tissue necrosis Level 4: number of mice (11 per group) at score 4 (Severe)
Experimental: KM mice, weighing 18-22g, with all 66 being males, were used and randomly grouped into a normal control group, a model control group, a Formula I compound group (40 mg/kg, in terms of free base), a Formula V compound group (40 mg/kg, in terms of free base), a Comparative Example group (40 mg/kg, in terms of free base), and an ambroxol hydrochloride group (40 mg/kg, in terms of free base), 11 animals in each group, and each group was administered intravenously (dissolved in normal saline by adjusting pH or directly dissolved in normal saline) once a day for 4 times, while the model control group and the normal control group were given an equivalent amount of normal saline. 30 minutes after the last administration, except for the normal control group, all other mice were administered 300 mg/kg oleic acid intravenously (prepared into the desired concentration with sterile saline containing 0.1% […] immediately before use), and the vehicle control group was given an equivalent volume of 0.1% BSA saline. The mice were sacrificed 4 hours after the last administration, and the right lobes of the lungs were removed and fixed in a 10% formaldehyde solution. After dehydration, embedding in paraffin, dissection, and staining with HE, they were observed under a microscope for pathological changes of the lung tissues. Here, the medicament used for the Comparative Example group was the 4-[(2-amino-3,5-dibromobenzyl)amino]adamantan-1-ol hydrochloride (racemic) prepared in Comparative Example 1. Table 1. Criteria for histological grading of lung injury
The above indicators are multiplied by different weighting numbers depending on the significance of the pathology (alveolar wall thickening × 1, inflammatory cell infiltration × 1, lung tissue necrosis × 3), and finally added up to obtain an overall lung pathology score. Table 2. Test results of lung pathologies of each group

[2] = tested on: expectoration amount by rat capillary tube expectoration; experiment: rat capillary sputum excretion test; type: in vivo, SD rats; conditions: length of liquid in capillary tube within 90 minutes, 15 mg/kg in terms of free base via tail vein, 30 minutes after administration, n=10, vehicle control 22.7±4.41
Experimental: 180-220g SD rats of both sexes were used and divided into random groups, with 10 rats in each group, namely a vehicle control group, a Formula I compound group (15 mg/kg, in terms of free base), a Formula V compound group (15 mg/kg, in terms of free base), a Comparative Example group (15 mg/kg, in terms of free base) and ambroxol hydrochloride (15 mg/kg, in terms of free base). The rats were fasted and restrained from water for 12 hours before testing the amount of sputum excretion, and administered the respective medicaments via the tail vein (dissolved in normal saline by adjusting pH or directly dissolved in normal saline). 30 minutes after the administration, they were anesthetized by intraperitoneally injecting 1g/kg of a urethane solution in saline, fixed in supine position, and the trachea was separated after cutting through neck skin. A small hole was pierced by using a syringe needle between the two cartilage rings on the lower edge of the thyroid cartilage, and a capillary tube (with an inner diameter of 0.8mm, and a length of 10cm) was inserted centripetally into the trachea. Sputum was collected while adjusting the angle between the capillary tube and the trachea, and the total number of the length of liquids in the capillary tube (mm) was used to evaluate the expectoration effect. The amount of expectoration of the rats within 90 minutes was recorded. Here, the medicament used for the Comparative Example group was the 4-[(2-amino-3,5-dibromobenzyl)amino]adamantan-1-ol hydrochloride (racemic) prepared in Comparative Example 1. Table 4. Results of the effect on the expectoration amount by rat capillary tube expectoration

[3] = tested on: tracheal phenol red secretion in mice; experiment: phenol red expectoration test in mice; type: in vivo; conditions: colorimetric measurement at 546nm; 30 mg/kg in terms of free base via tail vein 2 times in a row; x ± s, n=12; control 0.095±0.022
Experimental: Experimental method: 60 mice of both sexes were used and randomly divided into a control (normal saline) group, a Formula I compound group (30 mg/kg, in terms of free base), a Formula V compound group (30 mg/kg, in terms of free base), a Comparative Example group (30 mg/kg, in terms of free base) and ambroxol hydrochloride (30 mg/kg, in terms of free base), 12 rats in each group; the respective medicaments were administered via the tail vein (dissolved in normal saline by adjusting pH or directly dissolved in normal saline) 2 times in a row. 15 minutes after the last administration to the mice, a 5% phenol red solution in normal saline (0.5g/kg) was subcutaneously injected. After 30 minutes, the mice were sacrificed and a section of the trachea was cut from below the thyroid cartilage to the trachea branch. The section was placed in a test tube containing 1 mL of normal saline, shaken and soaked for 30 minutes, and then centrifuged for 10 minutes (3000 r/min). The supernatant was transferred to another test tube, 0.1 mL of 1M NaOH solution was added, and shaken uniformly for a colorimetric measurement at 546nm. The effects of each group on the tracheal phenol red secretion in mice were statistically compared, and the experimental results obtained are shown in Table 5 below. Here, the medicament used for the Comparative Example group was the 4-[(2-amino-3,5-dibromobenzyl)amino]adamantan-1-ol hydrochloride (racemic) prepared in Comparative Example 1. Table 5. Effects on tracheal phenol red secretion in mice (x ± s)

[4] = tested on: ammonia-induced coughing response in mice; experiment: cough response of mice induced by ammonia water; type: in vivo, KM mice; conditions: for reduction of the number of coughs: compared with the model control group (P<0.05 or P<0.01), 15 mg/kg free base i.v.; for Number of coughs (times): within 3 minutes after concentrated ammonia, 15 mg/kg in terms of free base i.v., 30 minutes after administration, x ± s, n=10, model control 41.7±8.76
Experimental: 50 KM mice, weighing 18-22g, of both sexes were used and randomly divided into 5 groups, a model control group, a Formula I compound group (15 mg/kg, in terms of free base), a Formula V compound group (15 mg/kg, in terms of free base), a Comparative Example group (15 mg/kg, in terms of free base), and an ambroxol hydrochloride group (15 mg/kg, in terms of free base), 10 animals in each group, and were administered intravenously (dissolved in normal saline by adjusting pH or directly dissolved in normal saline). 30 minutes after the administration, the mice were put in an inverted beaker with a volume of 500ml and a cotton ball inside. Timing was started once 0.2ml of concentrated ammonia/mouse was added onto the cotton ball. The number of coughs of each animal within 3 minutes was observed and recorded. Here, the medicament used for the Comparative Example group was the 4-[(2-amino-3,5-dibromobenzyl)amino]adamantan-1-ol hydrochloride (racemic) prepared in Comparative Example 1. Table 3. Effect on ammonia-induced coughing response in mice (x ± s, n=10)

| Structure (SMILES) | protective effect against acute lung injury in mice induced by oleic acid [1] | Overall lung pathology score [1] | Alveolar wall thickening Level 0 [1] | Inflammatory cell infiltration Level 0 [1] | Lung tissue necrosis Level 0 [1] | Alveolar wall thickening Level 1 [1] | Inflammatory cell infiltration Level 1 [1] | Lung tissue necrosis Level 1 [1] | Alveolar wall thickening Level 2 [1] | Inflammatory cell infiltration Level 2 [1] | Lung tissue necrosis Level 2 [1] | Alveolar wall thickening Level 3 [1] | Inflammatory cell infiltration Level 3 [1] | Lung tissue necrosis Level 3 [1] | Alveolar wall thickening Level 4 [1] | Inflammatory cell infiltration Level 4 [1] | Lung tissue necrosis Level 4 [1] | Expectoration amount in 90min (mm) [2] | Phenol red secretion (OD number) [3] | reduction of the number of coughs [4] | further results |
| --- | --- | --- | --- | --- | --- | --- | --- | --- | --- | --- | --- | --- | --- | --- | --- | --- | --- | --- | --- | --- | --- |
| Cl.Nc1c(Br)cc(Br)cc1CNC1C2CC3CC1CC(O)(C3)C2 (racemic) [Compound of Comparative Example, 4-[(2-amino-3,5-dibromobenzyl)amino]adamantan-1-ol hydrochloride (racemic)] | definite protective effect | 44* | 1 | 1 | 8 | 2 | 6 | 2 | 8 | 4 | 1 | 0 | 0 | 0 | 0 | 0 | 0 | 39.9±5.43 mm | 0.223±0.058 OD number | significantly reduce the number of coughs | Number of coughs (times) [4]: 25.7±6.40 times |
| Nc1c(Br)cc(Br)cc1CN[C@H]1CC[C@H](O)CC1 [Ambroxol hydrochloride] | – | 54 | 2 | 0 | 6 | 4 | 4 | 4 | 4 | 7 | 0 | 1 | 0 | 1 | 0 | 0 | 0 | 30.1±4.95 mm | 0.135±0.023 OD number | significantly reduce the number of coughs | Number of coughs (times) [4]: 32.7±8.55 times |
| Nc1c(Br)cc(Br)cc1CN[C@@H]1[C@@H]2C[C@@H]3C[C@H]1C[C@@](O)(C3)C2 [Compound of Formula I, trans-4-[(2-amino-3,5-dibromobenzyl)amino]adamantan-1-ol] | definite protective effect | – | 1 | 3 | 11 | 7 | 7 | 0 | 3 | 1 | 0 | 1 | 0 | 0 | 0 | 0 | 0 | – | 0.279±0.063 OD number | significantly reduce the number of coughs | Overall lung pathology score ([1]; 40 mg/kg): 23^**▲; Expectoration amount in 90min (mm) ([2]; 15 mg/kg): 45.9±6.79 mm; Number of coughs (times) ([4]; 15 mg/kg): 19.2±5.98 times |
